This passage reports IC50 results from ChEMBL document CHEMBL1142387, “Synthetic homoserine lactone-derived sulfonylureas as inhibitors of Vibrio fischeri quorum sensing regulator” (Bioorg Med Chem, 2008).

The target in this assay is T1, Transcriptional activator protein LuxR (Aliivibrio fischeri, UniProt P12746).
T1 sequence (P12746 whole entry): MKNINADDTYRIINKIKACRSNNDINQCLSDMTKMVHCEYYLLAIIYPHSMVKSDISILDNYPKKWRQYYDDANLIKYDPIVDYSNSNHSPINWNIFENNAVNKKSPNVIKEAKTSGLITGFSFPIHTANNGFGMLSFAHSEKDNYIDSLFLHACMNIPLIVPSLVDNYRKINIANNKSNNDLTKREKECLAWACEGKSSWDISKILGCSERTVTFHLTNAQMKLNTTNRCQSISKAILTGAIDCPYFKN
Kind of assay: Antagonist activity at LuxR in Vibrio fischeri assessed as inhibition of N-3-oxos-hexanoyl-L-homoserine lactone induced luminescence. Type of assay: functional.
As usually defined, the IC50 is the concentration needed to halve the response being measured. Consider `CCCCCCCCCCNS(=O)(=O)NC1CCOC1=O` (stereo unspecified), for which the IC50 stood at 7.8 µM.

Regarding `CCCCCS(=O)(=O)NC1CCOC1=O` (stereo unspecified), the IC50 is 3 µM.

On to `CCCCCCNS(=O)(=O)NC1CCOC1=O` (stereo unspecified), for which the IC50 stood at 5 µM.

In the case of `O=C1OCCC1NS(=O)(=O)NCCCCc1ccccc1` (stereo unspecified), the IC50 was 13 µM.

As to `O=C1OCCC1NS(=O)(=O)NCc1ccccc1` (stereo unspecified), the IC50 worked out at 6.4 µM.

As for `CCCCNS(=O)(=O)NC1CCOC1=O` (stereo unspecified), the IC50 stood at 3.6 µM.

With `CCCCNC(=O)NC1CCOC1=O` (stereo unspecified), the IC50 came to 5 µM.

Take `O=C1OCCC1NS(=O)(=O)NCCCc1ccccc1` (stereo unspecified): the IC50 came out at 9.4 µM.

As to `CCCCCNS(=O)(=O)NC1CCOC1=O` (stereo unspecified), the IC50 was determined as 2 µM.

Take `CCCCCCCCNS(=O)(=O)NC1CCOC1=O` (stereo unspecified): the IC50 was 7.2 µM.

As for `O=C1OCCC1NS(=O)(=O)NCCc1ccccc1` (stereo unspecified), the IC50 came to 13 µM.
